What was measured:
dStr-dMSN D1Rs = dStr-dMSN D1Rs (Mus musculus, UniProt Q61616); test: Open field test, MP-D1ago in dStr-dMSNs of D1-Cre mice; conditions: trans-P-D1ago 100 µM, 1 µL bilateral dStr-infusion, mice expressing the M
Excerpt: The mice were 20-30 grams and 8-20 weeks old. […] Mice were maintained on a 12:12 light cycle (lights on at 07:00).
The sub-second velocity traces recorded using Biobserve were smoothed in MATLAB using a first order Butterworth filter (normalized cutoff frequency ωu = 0.02). Using original code written in MATLAB, a velocity threshold was manually set to distinguish movements from tracking artifacts, as verified by visual inspection of each movie. Movement bouts were counted when the velocity surpassed this threshold and lasted for at least 0.3 seconds. Bouts were considered finished after the velocity remained below the manually defined threshold for 0.1 seconds. The percent time moving was calculated as the time that velocity was above the movement threshold divided by the time of the entire measurement. Movement initiation frequency was calculated as the number of times velocity surpassed the movement threshold per second. Movement bout duration was calculated by averaging the duration of all movement bouts that occurred during the entire measurement. Max velocity was calculated by averaging the maximum velocity of all movement bouts that occurred during the entire measurement.

intracellular SNAP-tag = target: T1, intracellular SNAP-tag (Homo sapiens, UniProt P16455, A127T/A154D/C150Q/C62A/E30R/G131K/G132T/G153L/K125A/K32I/L33F/M134L/N157G/Q115S/Q116H/R128A/R135S/S151G/S152D/S159E); test: Block of BG-TMRstar binding to intracellular SNAP-tag expressed in the cytosol; assay type: cell-based; conditions: 1 µM for 1 hour, then 1.5 µM BG-TMRstar for 20 minutes
T1 construct: expressed in transfected cells
T1 sequence (P16455 1-182 E30R/K32I/L33F/C62A/Q115S/Q116H/K125A/A127T/R128A/G131K/G132T/M134L/R135S/C150Q/S151G/S152D/G153L/A154D/N157G/S159E limits assumed): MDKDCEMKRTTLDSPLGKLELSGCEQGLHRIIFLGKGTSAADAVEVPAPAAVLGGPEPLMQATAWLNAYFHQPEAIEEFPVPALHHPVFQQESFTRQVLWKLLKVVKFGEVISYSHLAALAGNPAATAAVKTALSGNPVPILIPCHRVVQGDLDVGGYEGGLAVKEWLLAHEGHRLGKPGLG

GIRK channels = target: T2, GIRK channels (Homo sapiens, UniProt P48549, F137S); conditions: 1 µM P-D1ago labeled cells without D1R; % of 3 mM BaCh, a GIRK channel blocker; n = 5 cells
T2 sequence (P48549 1-501 F137S): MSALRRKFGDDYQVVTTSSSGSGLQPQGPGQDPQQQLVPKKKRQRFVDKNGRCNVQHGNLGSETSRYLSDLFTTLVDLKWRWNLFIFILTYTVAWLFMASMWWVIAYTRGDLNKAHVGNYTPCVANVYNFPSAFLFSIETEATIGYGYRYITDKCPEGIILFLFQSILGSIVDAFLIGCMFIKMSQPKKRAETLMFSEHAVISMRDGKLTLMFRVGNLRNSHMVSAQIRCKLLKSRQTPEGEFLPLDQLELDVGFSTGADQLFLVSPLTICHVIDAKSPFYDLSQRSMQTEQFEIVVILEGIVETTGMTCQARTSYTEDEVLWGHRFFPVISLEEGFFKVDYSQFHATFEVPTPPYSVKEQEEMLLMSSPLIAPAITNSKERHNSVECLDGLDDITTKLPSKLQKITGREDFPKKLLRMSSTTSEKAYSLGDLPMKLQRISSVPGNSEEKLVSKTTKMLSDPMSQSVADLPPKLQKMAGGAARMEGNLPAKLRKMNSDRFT

D1R = target: T3, D1R (Homo sapiens, UniProt P21728); test: D1R-mediated cAMP accumulation assay (BRET sensor CAMYEL) in HEK293T cells; assay type: cell-based; conditions: FIGS. 9A-9H
T3 construct: expressed in transfected cells; host or cells: HEK293T (A1, A2); HEK293 (A26)
T3 sequence (P21728 whole entry): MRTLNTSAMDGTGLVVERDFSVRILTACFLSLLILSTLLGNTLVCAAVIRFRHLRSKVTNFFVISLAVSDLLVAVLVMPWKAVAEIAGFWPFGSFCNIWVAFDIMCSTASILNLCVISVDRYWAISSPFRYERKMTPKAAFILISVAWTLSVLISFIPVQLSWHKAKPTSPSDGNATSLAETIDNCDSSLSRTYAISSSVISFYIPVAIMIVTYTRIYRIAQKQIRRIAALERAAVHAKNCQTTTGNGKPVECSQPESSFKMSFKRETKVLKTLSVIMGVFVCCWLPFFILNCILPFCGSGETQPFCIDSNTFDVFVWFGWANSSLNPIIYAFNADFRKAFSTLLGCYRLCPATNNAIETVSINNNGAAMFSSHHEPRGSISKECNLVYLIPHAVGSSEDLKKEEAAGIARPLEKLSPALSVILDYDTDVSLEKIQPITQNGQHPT
Excerpt: FIGS. 9A-9H. Functional properties of untethered P-D1ago. (A) Schematic representation of a D1R-mediated G protein-coupled inwardly rectifying potassium (GIRK) channel assay in HEK293T cells. Agonist-induced receptor activation results in the recruitment of a heterotrimeric G protein containing the chimeric Gα subunit (Gαis) followed by the release of Gβγ, which activates GIRK channels and enhances inward-current. […]. (C) Representative traces of the effect of untethered P-D1ago on D1R in the absence of the membrane-anchor (M) according to the GIRK assay. […] (D) Summary of the functional effect of untethered P-D1ago on D1R in the GIRK assay. n = 4-5 cells per condition. (E) Schematic representation of a highly sensitive D1R-mediated cAMP accumulation assay in HEK293T cells. Agonist-induced D1R activation results in Gs/olfrecruitment followed by the binding of its Gα subunit to adenylate cyclase (AC), which enhances the conversion of ATP to cAMP. cAMP binds the bioluminescence resonance energy transfer 1 (BRET′)-based cAMP sensor CAMYEL^87, resulting in a conformational change in its Epac domain that increases the distance and decreases BRET^1 between the donor Renilla luciferase (Rluc) and the acceptor YFP. […]

[1] = test system: membrane-anchor (M) (SNAP-tag); test: Labeling of the membrane-anchor (M) at the cell surface: block of BG-Alexa647 binding, imaging and flow cytometry; assay type: cell-based; conditions: 1 µM for 1 hour, then 1.5 µM BG-Alexa647 for 30 minutes
Experimental: Untransfected or membrane-anchor (M) expressing HEK293T cells were labeled with 1.5 µM BG-TMR or BG-Alexa647 (NEB) for 20-30 minutes in the dark at 37° C. and 5% CO2 in a standard extracellular solution. Cells were then (i) mounted on an upright, scanning confocal microscope (Zeiss LSM 780) and imaged with a 20x objective or (ii) washed in DPBS and measured by flow cytometry (BD LSR II).
FIGS. 8A-8D. Photophysical properties of P-D1ago. (A) Absorbance spectra of P-D1ago under blue light (460 nm; blue) and UV light (370 nm; grey). (B) P-D1ago repeatedly switches from its trans to cis isomer with UV light and back to trans with blue light. […] Cells were incubated for 1 hour with vehicle (left upper panels), 1 µM surface block (left middle panels), or 1 µM P-D1ago (left lower panels), and were then labeled for 30 minutes with 1.5 µM BG-Alexa647. Cytosolic tdTomato was used as a transfection marker, grey bar = […]. A summary of labeling according to flow cytometry is shown on the right. unpaired two-sided t-test, p = 0.60. n = 3-6 replicates per condition. (D) M labeling as a function of the concentration of P-D1ago. The M was incubated for 1 hour with increasing concentrations of P-D1ago, and then labeled for 30 minutes with 1.5 µM BG-Alexa647. Labeling was measured by flow cytometry. […] Labeling was measured by flow cytometry. n = 3-4 replicates per condition. […]

[2] = Photophysical properties (absorbance, photoswitching); assay type: physicochemical
Experimental: FIGS. 8A-8D. Photophysical properties of P-D1ago. (A) Absorbance spectra of P-D1ago under blue light (460 nm; blue) and UV light (370 nm; grey). (B) P-D1ago repeatedly switches from its trans to cis isomer with UV light and back to trans with blue light. […] Cells were incubated for 1 hour with vehicle (left upper panels), 1 µM surface block (left middle panels), or 1 µM P-D1ago (left lower panels), and were then labeled for 30 minutes with 1.5 µM BG-Alexa647. Cytosolic tdTomato was used as a transfection marker, grey bar = […]. A summary of labeling according to flow cytometry is shown on the right. unpaired two-sided t-test, p = 0.60. n = 3-6 replicates per condition. (D) M labeling as a function of the concentration of P-D1ago. The M was incubated for 1 hour with increasing concentrations of P-D1ago, and then labeled for 30 minutes with 1.5 µM BG-Alexa647. Labeling was measured by flow cytometry. (E) Time course of M labeling with P-D1ago. The M was incubated for different times with 1 µM P-D1ago, and then labeled for 30 minutes with 1.5 µM BG-Alexa647. Labeling was measured by flow cytometry. n = 3-4 replicates per condition. […] This contrasts with the commercially available permeant benzylguanine analog, cell block. […] Cytosolic mTurquoise was used as a transfection marker, grey bar = […]. A summary of labeling according to flow cytometry is shown on the right. unpaired two-sided t-test, ***p < 0.001. n = 3 replicates per condition.

Chain of dStr-dMSN D1Rs (Q61616 whole entry, the tested form may be a part): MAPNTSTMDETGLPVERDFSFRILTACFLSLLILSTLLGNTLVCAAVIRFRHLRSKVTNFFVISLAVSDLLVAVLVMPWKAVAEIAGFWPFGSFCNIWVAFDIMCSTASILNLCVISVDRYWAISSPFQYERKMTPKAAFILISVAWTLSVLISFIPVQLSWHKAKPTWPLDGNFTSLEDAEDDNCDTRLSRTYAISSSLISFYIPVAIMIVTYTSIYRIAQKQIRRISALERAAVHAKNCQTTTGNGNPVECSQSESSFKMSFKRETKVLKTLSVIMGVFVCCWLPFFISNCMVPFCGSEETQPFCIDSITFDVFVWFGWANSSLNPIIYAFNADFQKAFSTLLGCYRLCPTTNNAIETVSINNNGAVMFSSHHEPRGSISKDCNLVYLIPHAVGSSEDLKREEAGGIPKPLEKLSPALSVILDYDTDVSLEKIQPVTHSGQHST

CCCN(CCc1ccc(N=Nc2ccc(NC(=O)CNC(=O)CCOCCOCCOCCOCCOCCOCCOCCOCCOCCOCCOCCOCCn3cc(CCC(=O)NCc4ccc(COc5nc(N)nc6nc[nH]c56)cc4)nn3)cc2)cc1)C1CCc2c(O)cccc2C1 (centres unmarked) [P-D1ago, Benzylguanine-azobenzene-PPHT]
persistence of increased motor activity (dStr-dMSN D1Rs): remained high for many hours
return of motor activity to baseline (dStr-dMSN D1Rs): returned to baseline over a two-day period
time to increase of motor activity after start of infusion (dStr-dMSN D1Rs; dark): ≤ 30 min
block of BG-TMRstar binding to intracellular SNAP-tag (membrane permeation) (intracellular SNAP-tag): does not effectively prevent the binding
effect of switching from UV light to blue light on basal current (GIRK channels): 1.3 ± 1.0%
agonist profile at D1R in untethered form (D1R): low potency full agonist
binding to the M at the cell surface (block of BG-Alexa647 binding) [1]: almost completely
binding to the M at the cell surface (block of BG-Alexa647 binding) ([1]; listed as P-Dlago): binds efficiently
wavelength switching trans-isomer to cis-isomer ([2]; UV light): 370 nm
wavelength switching cis-isomer back to trans-isomer ([2]; blue light): 460 nm
stability of the cis state ([2]; in the dark after illumination with UV light): stable in the cis state in the dark

— patent US20230173090A1, “COMPOSITIONS AND METHODS FOR MODULATING DOPAMINE RECEPTOR ACTIVITY” (The Regents of the University of California, priority 2020, published 2023)
